Results from patent US20250281629A1, “COMPOSITIONS AND METHODS FOR ANTI-PHOSPHOCHOLINE ACTIVE IMMUNOTHERAPY” (Duke University, priority 2022, published 2025).
Where no end group is shown, it is not given here.

Assays:
Type in all cases: in vivo, mouse
C57BL/6 mice [1] = assay: One cycle acute DSS-induced colitis, female and male mice
Text: (§1) DSS-Induced Colitis and Assessment. Before inducing colitis, mice from each treatment group were divided amongst the cages to avoid any cage-related disease effects. This excluded the PBS without DSS (healthy) control mice which remained in their own cage and received normal drinking water for the duration of the experiment. Colitis was induced by administering 2% (w/v) colitis-grade dextran sodium sulfate (MP Biomedicals, 160110) in drinking water. For determination of prophylactic immunization efficacy, mice were immunized i.p. 3 times at days −35, −21 and −7 before colitis induction on Day 0. Chronic colitis was induced via DSS-containing water given for 5 days followed by 5 days of normal drinking water for 3 cycles, resulting in a 30-day model. A shorter, acute DSS-induced colitis model consisting of one cycle of colitis was achieved by giving 5 days of 2% DSS in water followed by 5 days of normal drinking water for a total of 10 days and was also examined in a preventative immunization scenario. Mice were weighed daily and evaluated for the IACUC approved humane endpoint of >30% weight loss as DSS mice regain weight quickly after DSS administration ceases. They were also monitored for occult blood with Hemoccult tape and developer (Beckman Coulter, 63202) and fecal consistency. Disease activity index (DAI) scores were a combination of weight loss (≥100%=0, 90-99%=1, 80-89%=2, >80%=3), occult blood (no blood=0, blood=3), and fecal consistency (hard=0, soft=1, softer=2, runny=3), with a possible daily maximum score of 9. […] At the experimental endpoint, mice were euthanized, and colon lengths were measured from the base of the cecum to the rectum using digital calibrators. To determine immunization efficacy in a therapeutic colitis setting, colitis was first induced by administering one cycle of colitis achieved by 5 days of 2% DSS in water followed by 5 days of normal drinking water for a total of 10 days. Mice were monitored daily as described above until they on average regained their original body weight on day 20. At this point, i.p. immunizations were initiated and given three times over a 4-week period on days 20, 32, and 45, and colitis monitoring was reduced to twice weekly. An additional cycle of colitis was then induced on day 51 via 5 days of 2% DSS in water followed by 5 days of normal drinking water for a total of 10 days with daily monitoring. The entire therapeutic model ended on day 60, and colon lengths were measured as described above.
Spleen Bacteria Measurements. At the conclusion of the DSS experiments, spleens were harvested and weighed followed by homogenization in 500 μL of 0.1% Triton X-100 in sterile 1×PBS using a Tissue Tearer handheld homogenizer (Biospec Products). 25 μL of homogenate solution was then spread on each quarter of culture plates consisting of tryptic soy broth No. 2 (Sigma, 51228) and Difco agar, granulated (BD Biosciences, 214530) in dilutions from 100 to 103. After a 48 hr incubation at 37° C., colony forming units (CFUs) were counted and converted to CFU/g of spleen tissue via the equations: […]
Colon IL-10 Quantification. At the conclusion of some DSS experiments, one half of the harvested mouse colons were flushed with PBS to remove fecal matter and flash frozen in liquid nitrogen. Later, colons were thawed on ice, weighed, and homogenized in 2 μL/mg of Tissue Extraction Reagent I (Thermo Fisher, FNN0071) with a protease inhibitor tablet (Thermo Fisher, A32955) using a Navy Bead Lysis Kit (Next Advance, NAVYE1). The amount of IL-10 in colon homogenate supernatants was then measured using an IL-10 mouse ELISA kit (Invitrogen, 88-7105-22) in accordance with the manufacturer's protocol.

C57BL/6 mice [2] = assay: Therapeutic DSS colitis model (immunization between DSS cycles)
Text: as §1, with “consistency.” for “consistency. Disease activity index (DAI) scores were a combination of weight loss (≥100%=0, 90-99%=1, 80-89%=2, >80%=3), occult blood (no blood=0, blood=3), and fecal consistency (hard=0, soft=1, softer=2, runny=3), with a possible daily maximum score of 9.”, “To determine immunization efficacy in a therapeutic colitis setting, colitis was first induced by administering one cycle of colitis achieved by 5 days of 2% DSS in water followed by 5 days of normal drinking water for a total of 10 days.” left out, “At this point, i.p. immunizations were initiated and given three times over a 4-week period on days 20, 32, and 45, and colitis monitoring was reduced to twice weekly. An additional cycle of colitis was then induced on day 51 via 5 days of 2% DSS in water followed by 5 days of normal drinking water for a total of 10 days with daily monitoring.” left out
FITC-dextran Measurements. […] To determine the intestinal barrier permeability, serum samples were diluted in 1×PBS and FITC fluorescence intensity was measured at an excitation of 488 nm and emission of 520 nm. […]
Spleen Bacteria Measurements. […] After a 48 hr incubation at 37° C., colony forming units (CFUs) were counted and converted to CFU/g of spleen tissue via the equations: […]

B1a cells (CD19^+CD5^+) = assay: Colon B cell populations by flow cytometry: B1a cells; details: vs other DSS-administered mice
Procedure: Determination of Colon B cell Populations. Small colon samples collected from either after immunization only or after colitis experiments were collected at experimental endpoints. Colon samples were flushed with PBS and then digested in a solution containing 200 U/mL collagenase from Clostridium histolyticum (Sigma, C5138) and 0.1 mg/mL DNase I (Sigma, 10104159001) in 1×PBS. Digestion occurred at 37° C. while shaking for a total of 30 minutes. The solutions were then filtered to isolate cells, spun down, and transferred into ice cold flow buffer (2% heat-inactivated FBS in 1×PBS). The cells were blocked with mouse BD Fc Block (Clone: 2.4G2) (BD Biosciences, 553142) for 30 min on ice and then washed in flow buffer and stained with antibodies against CD5-APC (Clone: 53-7.3) (BioLegend, 100626), CD19-APC/Cy7 (Clone: 6D5) (BioLegend, 115530), B220-PE (Clone: RA3-6B2) (BioLegend, […]), and CD138-PE/Cy7 (Clone: 281-2) (BioLegend, […]) in flow buffer for 30 min on ice. Cells were washed and DAPI was added. Flow cytometry was then conducted on a BD FACSCanto II cytometer and the results were analyzed using FlowJo software.

Substance: (C11H22NO6P)n-CCCCSGSG-QQKFQFQFEQQ-NH2 (CCCCSGSGQQKFQFQFEQQ-NH2; not fully specified; cysteine pairing not given here; also: phosphorylcholine groups (C11H22NO6P) n=1-4, attachment not placed) [PCM-Q11, linear multi-PC conjugate]
- colon lengths (C57BL/6 mice [1]; both sexes, vs CpG-immunized mice and DSS disease controls): increased colon lengths
- serum anti-PC IgM, female mice (C57BL/6 mice [1]; female): undetectable
- spleen colony forming units (CFUs), female mice (C57BL/6 mice [1]; female): dramatically decreased spleen colony forming units (CFUs)
- colon IL-10 levels, male mice (C57BL/6 mice [1]; male): not significantly reduced compared to healthy controls
- serum anti-PC IgM, male mice (C57BL/6 mice [1]; male): significantly less anti-PC IgM than PCM-Q11/CpG
- spleen CFUs / bacterial spread, male mice (C57BL/6 mice [1]; male): This trend was also present, though not statistically significant
- protective efficacy / disease metrics, female mice (C57BL/6 mice [1]; one cycle 2% DSS, 10 days, female): significant protective efficacy
- weight loss and disease activity index scores, male mice (C57BL/6 mice [1]; one cycle 2% DSS, male): improved weight loss and disease activity index scores
- anti-PC IgG responses in mice with prior DSS colitis (C57BL/6 mice [2]; i.p. days 20, 32, 45, without CpG, vs immunization in absence of prior colitis): higher anti-PC IgG responses
- IgG subclasses in mice with prior DSS colitis (C57BL/6 mice [2]; mouse, in vivo): not altered
- anti-PC IgM response in mice with prior DSS colitis (C57BL/6 mice [2]; without CpG): measurable anti-PC IgM response
- colonic B1a cells after chronic DSS colitis (B1a cells (CD19^+CD5^+)): decrease in B1a cells
